Measured values from paper PMC8429249 (Journal of medicinal chemistry, 2021).
Where two headings read alike, the source gives them in different places.

Experiments:
[1] = biological target: RLuc8-KRasG12V / GFP-CRAF RBD interaction in HEK293T cells (Homo sapiens, UniProt P01116, G12V); experiment: Intracellular Ras-Raf BRET2 assay; format: cell-based; settings: 0–15 μM, 20 h
[2] = system: H358 cells; experiment: MTT cell viability assay; format: cell-based, human; settings: read-out: MTT EC50, 96 h, 10% FBS, mean ± SD
[3] = biological target: RLuc8-KRasG12D / GFP-CRAF RBD interaction in HEK293T cells (Homo sapiens, UniProt P01116, G12D); experiment: Intracellular Ras-Raf BRET2 assay; format: cell-based; settings: 0–15 μM, 20 h
[4] = system: H358 cells; settings: read-out: CellTiter-Glo EC50, 96 h, 10% FBS, mean ± SD

ΦOSQΦΠ-K-fArR-J-BBK-NH2 [Peptide B3-4]
effect on BRET signal (KRasG12V-CRAF RBD) [1]: did not decrease the BRET signal
EC50 [2]: 29 ± 6 µM
effect on BRET signal (KRasG12D-CRAF RBD) [3]: did not decrease the BRET signal
EC50 [4]: 22 ± 4 µM
